Measurements taken from Sander's compilation of Henry's law constants.

What was measured:
[1] = Henry solubility constant Hcp at 296 K (mol/(m3 Pa))
[2] = Henry solubility constant Hcp at 298.15 K (mol/(m3 Pa))
[3] = Henry solubility constant Hcp at 310 K (mol/(m3 Pa))
[4] = Henry solubility constant Hcp at 293 K (mol/(m3 Pa))
[5] = reference: Bissonette et al. (1990)
[6] = reference: Robbins et al. (1993)
[7] = reference: Turner et al. (1996)
[8] = reference: Warner et al. (1980)
[9] = reference: Power and Stegall (1970)
[10] = reference: Munz and Roberts (1987)

Compound: CCc1ccccc1 [ethylbenzene]
- Henry solubility constant Hcp at 296 K ([1]; reference: Miller and Stuart (2000)): 0.0016
- Henry solubility constant Hcp ([2]; reference: Allen et al. (1998)): 0.0013
- Henry solubility constant Hcp [2, 5]: 0.0011
- Henry solubility constant Hcp ([2]; reference: Brown and Wasik (1974)): 0.0013
- Henry solubility constant Hcp ([2]; reference: Ervin et al. (1980)): 0.0014
- Henry solubility constant Hcp ([2]; reference: Hartkopf and Karger (1973)): 0.0016
- Henry solubility constant Hcp ([2]; reference: Heidman et al. (1985)): 0.0013
- Henry solubility constant Hcp ([2]; reference: Li et al. (2008)): 0.0014
- Henry solubility constant Hcp ([2]; reference: Lodge and Danso (2007)): 0.0011
- Henry solubility constant Hcp ([2]; reference: Mackay et al. (1979)): 0.0012
- Henry solubility constant Hcp ([2]; reference: Perlinger et al. (1993)): 0.0013
- Henry solubility constant Hcp [2, 6]: 0.0013
- Henry solubility constant Hcp ([2]; reference: Sanemasa et al. (1981)): 0.0014
- Henry solubility constant Hcp ([2]; reference: Sieg et al. (2009)): 0.0013
- Henry solubility constant Hcp [2, 7]: 0.0011
- Henry solubility constant Hcp [2, 8]: 0.0015

Compound: C[Si](C)(C)O[Si](C)(C)C [hexamethyldisiloxane]
- Henry solubility constant Hcp at 296 K ([1]; reference: David et al. (2000)): 7.7e-07
- Henry solubility constant Hcp ([2]; reference: Xu and Kropscott (2014)): 1.3e-06

Compound: [Ne] [neon]
- Henry solubility constant Hcp at 310 K [3, 9]: 4.3e-06
- Henry solubility constant Hcp ([2]; reference: Crovetto et al. (1982)): 4.4e-06
- Henry solubility constant Hcp ([2]; reference: Krause and Benson (1989)): 4.5e-06
- Henry solubility constant Hcp ([2]; reference: Lannung (1930)): 4.6e-06
- Henry solubility constant Hcp ([2]; reference: Morrison and Johnstone (1954)): 4.5e-06
- Henry solubility constant Hcp ([2]; reference: von Antropoff (1910)): 6.6e-06

Compound: CCCCC=O [pentanal]
- Henry solubility constant Hcp at 296 K ([1]; reference: Liu et al. (2015)): 0.068
- Henry solubility constant Hcp ([2]; reference: Buttery et al. (1965)): 0.058
- Henry solubility constant Hcp ([2]; reference: Ji and Evans (2007)): 0.071

Compound: FS(F)(F)(F)(F)F [sulfur hexafluoride]
- Henry solubility constant Hcp at 310 K ([3]; reference: Longo et al. (1970)): 1.7e-06
- Henry solubility constant Hcp at 310 K [3, 9]: 1.7e-06
- Henry solubility constant Hcp ([2]; reference: Ashton et al. (1968)): 2.4e-06
- Henry solubility constant Hcp ([2]; reference: Bullister et al. (2002)): 2.3e-06
- Henry solubility constant Hcp ([2]; reference: Cosgrove and Walkley (1981)): 2.5e-06
- Henry solubility constant Hcp ([2]; reference: Friedman (1954)): 2.2e-06
- Henry solubility constant Hcp ([2]; reference: Park et al. (1982)): 2.4e-06

Compound: BrC(Br)Br [tribromomethane]
- Henry solubility constant Hcp at 310 K ([3]; reference: Zhang et al. (2002)): 0.0096
- Henry solubility constant Hcp ([2]; reference: Khalfaoui and Newsham (1994a)): 0.0085
- Henry solubility constant Hcp [2, 10]: 0.018
- Henry solubility constant Hcp ([2]; reference: Nicholson et al. (1984)): 0.016
- Henry solubility constant Hcp ([2]; reference: Ruiz-Bevia and Fernandez-Torres (2010)): 0.02
- Henry solubility constant Hcp [2, 8]: 0.019

Compound: ClC=C(Cl)Cl [trichloroethene]
- Henry solubility constant Hcp at 296 K ([1]; reference: David et al. (2000)): 0.001
- Henry solubility constant Hcp at 293 K ([4]; reference: Chiang et al. (1998)): 0.0011
- Henry solubility constant Hcp at 293 K ([4]; reference: Pearson and McConnell (1975)): 0.0011
- Henry solubility constant Hcp at 293 K ([4]; reference: Yurteri et al. (1987)): 0.00094
- Henry solubility constant Hcp ([2]; reference: Bierwagen and Keller (2001)): 0.0012
- Henry solubility constant Hcp [2, 5]: 0.001
- Henry solubility constant Hcp ([2]; reference: Chen et al. (2012)): 0.001
- Henry solubility constant Hcp ([2]; reference: Cooling et al. (1992)): 0.00097
- Henry solubility constant Hcp ([2]; reference: Ervin et al. (1980)): 0.00074
- Henry solubility constant Hcp ([2]; reference: Garbarini and Lion (1985)): 0.001
- Henry solubility constant Hcp ([2]; reference: Gossett (1987)): 0.001
- Henry solubility constant Hcp ([2]; reference: Gossett et al. (1985)): 0.0011
- Henry solubility constant Hcp ([2]; reference: Görgényi et al. (2002)): 0.00095
- Henry solubility constant Hcp ([2]; reference: Heron et al. (1998)): 0.00093
- Henry solubility constant Hcp ([2]; reference: Khalfaoui and Newsham (1994b)): 0.00095
- Henry solubility constant Hcp ([2]; reference: Knauss et al. (2000)): 0.0011
- Henry solubility constant Hcp ([2]; reference: Lincoff and Gossett (1984)): 0.00097
- Henry solubility constant Hcp [2, 10]: 0.00096
- Henry solubility constant Hcp ([2]; reference: Nielsen et al. (1994)): 0.0013
- Henry solubility constant Hcp ([2]; reference: Park et al. (1997)): 0.00088
- Henry solubility constant Hcp ([2]; reference: Peng and Wan (1997)): 0.0011
- Henry solubility constant Hcp ([2]; reference: Peng and Wan (1998)): 0.0014
- Henry solubility constant Hcp ([2]; reference: Ramachandran et al. (1996)): 0.00083
- Henry solubility constant Hcp [2, 6]: 0.00094
- Henry solubility constant Hcp ([2]; reference: Schoene and Steinhanses (1985)): 0.0009
- Henry solubility constant Hcp ([2]; reference: Shimotori and Arnold (2003)): 0.001
- Henry solubility constant Hcp ([2]; reference: Tancrède and Yanagisawa (1990)): 0.0013
- Henry solubility constant Hcp [2, 7]: 0.00085
- Henry solubility constant Hcp ([2]; reference: Vane and Giroux (2000)): 0.0011
- Henry solubility constant Hcp [2, 8]: 0.00084

Compound: ClC1C(Cl)C(Cl)C(Cl)C(Cl)C1Cl (stereo not given) [γ-1,2,3,4,5,6-hexachlorocyclohexane]
- Henry solubility constant Hcp at 296 K ([1]; reference: Fendinger and Glotfelty (1988)): 5
- Henry solubility constant Hcp at 296 K ([1]; reference: Fendinger et al. (1989)): 4.9
- Henry solubility constant Hcp ([2]; reference: Kucklick et al. (1991)): 2.8
- Henry solubility constant Hcp ([2]; reference: Sahsuvar et al. (2003)): 4.3
- Henry solubility constant Hcp ([2]; reference: Xie et al. (2004)): 6
